In patent US6127420A, “L-N^5 -(1-imino-3-alkenyl) ornithine and related compounds and use thereof” (priority 1998, dated 2000):
Like-named read-outs stand apart in the source and are kept apart here.

What was measured:
iNOS [1] = target: T1, iNOS (Mus musculus, UniProt P29477); assay: biochemical
eNOS [2] = target: T2, eNOS (Bos taurus, UniProt P29473); assay: biochemical
nNOS [3] = target: T3, nNOS (Rattus norvegicus, UniProt P29476); assay: Time-dependent inactivation of nNOS (residual activity, oxyhemoglobin oxidation); format: biochemical; design: made in house; host or cells: stably transfected kidney 293 cells; conditions: 25° C.; for inactivation of nNOS relative to 2.0 μM L-NMA (FIG. 2): 0.5 μM L-VNIO vs 2.0 μM L-NMA; for inactivation of nNOS (in words, FIG. 2): under the conditions examined
Description: Nitric oxide-mediated oxidation of oxyhemoglobin was monitored at 401 nm (ε=0.038 μM^-1); the reference cuvette contained a similar mixture without enzyme. Rates were measured and used to calculate the residual activity. The results are shown in FIG. 1 where for ln A/Ao in the legend for the vertical axis, A is the residual activity of NOS at the time indicated and Ao is the activity of NOS at time zero (i.e., initial activity).
Determinations were carried out as described in Example XI. The results are shown in FIG. 2 where in (A/Ao) means the same as in Example XI.
Testing was carried out to compare inactivation by L-VNIO of the nNOS, eNOS and iNOS isoforms. Determinations were carried out as set forth in Example XI except that the reaction mixtures for iNOS omitted CaCl2 and calmodulin.

[4] = Migraine headache treatment of a patient with L-VNIO tablets; format: in vivo, human
Description: A person with a history of migraine headaches is provided with tablets containing 500 mg of L-VNIO. They are instructed to take one tablet at the first sign of migraine headache development and to take a second table 60 minutes later if the headache continues to develop. When a right-sided migraine headache begins, they take one tablet as instructed, and headache pain begins to decrease within 15 minutes and is absent within 45 minutes. […] The women therefore takes a second table as instructed and headache pain is absent within 30 minutes of taking the second tablet.

[5] = tested on: female Sprague-Dawley CFY rats; assay: Stroke volume after carotid artery ligation in rats; format: in vivo, rat; conditions: 25 mg/kg i.v. bolus 30 minutes after occlusion; histology 24 hours after artery occlusion
Description: Both carotid arteries are ligated in two groups of female Sprague-Dawley CFY rats. After 10 minutes, ligations are released and flow is again allowed.
In the case of one group, L-VNIO (25 mg/kg) is administered by bolus injection through a venous catheter 30 minutes after occlusion of the arteries. In the case of the other group, no therapeutic agent is administered.

iNOS [6] = target: T1, iNOS; conditions: for iNOS Ki/Km: Ki divided by Km for L-arginine
nNOS [7] = target: T3, nNOS; conditions: for nNOS Ki/Km: Ki divided by Km for L-arginine; for selectivity for nNOS (in words): vs eNOS (and iNOS for L-VNIO), on a Ki/Km basis
eNOS [8] = target: T2, eNOS; conditions: for eNOS Ki/Km: Ki divided by Km for L-arginine
iNOS [9] = target: T1, iNOS; assay: Time-dependent inactivation of iNOS (residual activity, oxyhemoglobin oxidation; CaCl2 and calmodulin omitted); format: biochemical; conditions: up to 100 μM L-VNIO, 25° C.
eNOS [10] = target: T2, eNOS; assay: Time-dependent inactivation of eNOS (residual activity, oxyhemoglobin oxidation); format: biochemical, bovine; conditions: 25° C.
nNOS [11] = target: T3, nNOS; assay: biochemical
[12] = first migraine, one 500 mg tablet

T1 sequence (P29477 whole entry): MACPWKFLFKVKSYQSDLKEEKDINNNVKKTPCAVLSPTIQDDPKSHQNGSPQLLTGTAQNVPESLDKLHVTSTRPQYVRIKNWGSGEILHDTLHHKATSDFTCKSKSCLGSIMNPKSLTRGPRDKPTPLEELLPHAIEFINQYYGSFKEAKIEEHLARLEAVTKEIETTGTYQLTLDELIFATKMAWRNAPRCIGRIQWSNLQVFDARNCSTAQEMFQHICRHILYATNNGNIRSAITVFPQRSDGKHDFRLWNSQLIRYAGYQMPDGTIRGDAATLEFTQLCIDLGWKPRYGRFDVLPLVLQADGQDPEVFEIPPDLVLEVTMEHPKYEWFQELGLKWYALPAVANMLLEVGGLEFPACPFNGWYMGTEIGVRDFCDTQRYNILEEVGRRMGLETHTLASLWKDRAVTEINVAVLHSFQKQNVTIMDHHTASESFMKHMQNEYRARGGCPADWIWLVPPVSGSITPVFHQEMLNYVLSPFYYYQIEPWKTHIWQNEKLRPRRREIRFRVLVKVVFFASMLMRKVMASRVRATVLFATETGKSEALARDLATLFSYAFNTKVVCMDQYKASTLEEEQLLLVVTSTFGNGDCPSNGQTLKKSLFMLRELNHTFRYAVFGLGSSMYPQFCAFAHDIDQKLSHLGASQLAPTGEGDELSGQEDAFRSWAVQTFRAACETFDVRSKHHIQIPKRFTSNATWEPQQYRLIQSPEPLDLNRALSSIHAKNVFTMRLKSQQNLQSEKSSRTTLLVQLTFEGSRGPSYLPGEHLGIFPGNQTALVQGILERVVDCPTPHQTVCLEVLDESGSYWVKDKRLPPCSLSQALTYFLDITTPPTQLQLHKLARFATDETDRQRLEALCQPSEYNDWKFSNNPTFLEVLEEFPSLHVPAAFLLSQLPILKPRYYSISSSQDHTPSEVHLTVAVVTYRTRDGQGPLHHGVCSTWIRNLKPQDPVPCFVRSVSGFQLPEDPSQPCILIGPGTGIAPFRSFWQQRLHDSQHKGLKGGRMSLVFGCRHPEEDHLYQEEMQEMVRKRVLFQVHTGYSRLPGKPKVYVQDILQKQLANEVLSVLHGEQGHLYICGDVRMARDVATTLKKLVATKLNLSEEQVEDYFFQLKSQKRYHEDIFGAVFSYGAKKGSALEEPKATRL
T2 sequence (P29473 2-1205): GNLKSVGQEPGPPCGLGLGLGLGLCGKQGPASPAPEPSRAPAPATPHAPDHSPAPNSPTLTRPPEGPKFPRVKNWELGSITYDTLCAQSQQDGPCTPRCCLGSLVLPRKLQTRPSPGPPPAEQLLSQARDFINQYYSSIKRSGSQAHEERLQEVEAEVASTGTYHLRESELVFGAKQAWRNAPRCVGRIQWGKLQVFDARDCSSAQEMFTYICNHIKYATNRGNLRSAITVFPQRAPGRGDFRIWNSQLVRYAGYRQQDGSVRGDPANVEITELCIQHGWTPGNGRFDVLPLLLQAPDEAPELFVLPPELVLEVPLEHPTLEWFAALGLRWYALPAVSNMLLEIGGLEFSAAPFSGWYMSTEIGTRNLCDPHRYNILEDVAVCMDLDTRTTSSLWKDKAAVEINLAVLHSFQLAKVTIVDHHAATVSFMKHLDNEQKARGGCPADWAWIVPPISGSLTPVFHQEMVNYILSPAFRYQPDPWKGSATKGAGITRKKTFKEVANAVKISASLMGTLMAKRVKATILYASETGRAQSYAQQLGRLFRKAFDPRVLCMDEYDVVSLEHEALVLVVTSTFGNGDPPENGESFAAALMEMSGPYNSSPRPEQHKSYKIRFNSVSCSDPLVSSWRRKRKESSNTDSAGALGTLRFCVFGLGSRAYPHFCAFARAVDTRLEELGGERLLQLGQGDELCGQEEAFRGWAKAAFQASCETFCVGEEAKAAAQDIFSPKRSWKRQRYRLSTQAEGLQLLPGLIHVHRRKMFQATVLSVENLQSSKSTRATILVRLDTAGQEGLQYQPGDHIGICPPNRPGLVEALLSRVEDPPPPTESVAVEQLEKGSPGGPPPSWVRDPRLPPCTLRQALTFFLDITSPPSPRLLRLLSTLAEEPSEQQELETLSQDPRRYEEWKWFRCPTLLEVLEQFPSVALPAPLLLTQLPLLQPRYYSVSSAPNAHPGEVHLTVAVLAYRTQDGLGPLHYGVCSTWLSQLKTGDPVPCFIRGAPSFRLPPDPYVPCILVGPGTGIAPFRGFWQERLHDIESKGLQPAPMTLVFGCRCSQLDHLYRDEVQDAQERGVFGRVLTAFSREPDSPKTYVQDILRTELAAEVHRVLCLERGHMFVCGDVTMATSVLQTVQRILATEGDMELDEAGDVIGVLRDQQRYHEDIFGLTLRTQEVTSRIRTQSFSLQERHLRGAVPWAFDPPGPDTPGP
T3 sequence (P29476 whole entry): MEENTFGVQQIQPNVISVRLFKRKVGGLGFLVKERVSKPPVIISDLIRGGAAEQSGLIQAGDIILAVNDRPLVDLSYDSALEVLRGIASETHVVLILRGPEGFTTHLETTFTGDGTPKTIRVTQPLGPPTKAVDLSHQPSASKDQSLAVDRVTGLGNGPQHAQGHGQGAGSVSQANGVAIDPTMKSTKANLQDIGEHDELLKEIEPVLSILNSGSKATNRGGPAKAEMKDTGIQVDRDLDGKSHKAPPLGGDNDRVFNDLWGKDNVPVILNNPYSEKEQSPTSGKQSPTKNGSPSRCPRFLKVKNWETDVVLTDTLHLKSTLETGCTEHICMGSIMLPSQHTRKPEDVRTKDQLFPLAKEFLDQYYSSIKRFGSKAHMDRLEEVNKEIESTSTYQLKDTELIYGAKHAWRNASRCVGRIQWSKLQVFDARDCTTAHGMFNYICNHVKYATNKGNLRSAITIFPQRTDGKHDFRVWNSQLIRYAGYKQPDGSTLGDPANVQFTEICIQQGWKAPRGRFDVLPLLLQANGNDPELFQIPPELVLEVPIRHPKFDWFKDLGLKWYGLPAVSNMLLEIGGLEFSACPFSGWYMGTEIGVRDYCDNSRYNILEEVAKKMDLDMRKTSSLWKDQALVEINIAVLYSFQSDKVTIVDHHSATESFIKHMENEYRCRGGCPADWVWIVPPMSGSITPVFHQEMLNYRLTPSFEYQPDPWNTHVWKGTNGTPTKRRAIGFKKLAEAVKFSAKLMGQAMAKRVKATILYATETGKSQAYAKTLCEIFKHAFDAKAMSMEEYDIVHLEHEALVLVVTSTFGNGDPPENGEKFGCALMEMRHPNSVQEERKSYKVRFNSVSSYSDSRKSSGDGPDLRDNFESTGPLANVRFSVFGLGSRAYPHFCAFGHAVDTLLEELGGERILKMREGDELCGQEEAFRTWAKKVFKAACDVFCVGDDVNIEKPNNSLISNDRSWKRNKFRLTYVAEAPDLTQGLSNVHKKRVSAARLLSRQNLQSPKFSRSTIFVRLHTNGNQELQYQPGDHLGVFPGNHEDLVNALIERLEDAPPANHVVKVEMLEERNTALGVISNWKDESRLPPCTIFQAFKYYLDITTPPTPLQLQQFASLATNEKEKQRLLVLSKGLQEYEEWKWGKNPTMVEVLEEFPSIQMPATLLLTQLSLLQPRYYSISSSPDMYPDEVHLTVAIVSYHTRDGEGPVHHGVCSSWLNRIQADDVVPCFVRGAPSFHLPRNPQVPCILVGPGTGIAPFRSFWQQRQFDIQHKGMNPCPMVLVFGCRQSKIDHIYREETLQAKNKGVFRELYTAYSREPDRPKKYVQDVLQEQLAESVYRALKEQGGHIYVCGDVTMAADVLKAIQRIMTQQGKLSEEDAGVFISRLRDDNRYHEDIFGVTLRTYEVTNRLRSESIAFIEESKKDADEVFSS

| Structure (SMILES) | Ki (iNOS [1]) [µM] | Ki (eNOS [2]) [µM] | iNOS Ki/Km (iNOS [6]) | nNOS Ki/Km (nNOS [7]) | eNOS Ki/Km (eNOS [8]) | inactivation of nNOS (in words, FIG. 2) (nNOS [3]) | inactivation of nNOS relative to 2.0 μM L-NMA (FIG. 2) (nNOS [3]) | selectivity for nNOS (in words) (nNOS [7]) | other results |
| --- | --- | --- | --- | --- | --- | --- | --- | --- | --- |
| CNC(=N)NCCC[C@H](N)C(=O)O [L-NMA, N^ω -methyl-L-arginine, reference compound] | – | – | – | – | – | – | comparable | – | – |
| CCCC(=N)NCCC[C@H](N)C(=O)O [ethyl-L-NIO, reference compound] | 12 | 18 | 0.96 | 3.79 | 5.00 | does not inactivate nNOS | – | do not show biologically significant selectivity for nNOS over eNOS | selectivity for iNOS over nNOS and eNOS (iNOS [6]; on a Ki/Km basis): 3 to 5 fold; Ki (nNOS [11]): 5.3 µM |

Second part, led by results:

| Ki (iNOS [1]) [µM] | Ki (eNOS [2]) [µM] | iNOS Ki/Km (iNOS [6]) | nNOS Ki/Km (nNOS [7]) | eNOS Ki/Km (eNOS [8]) | inactivation of nNOS (in words, FIG. 2) (nNOS [3]) | Structure (SMILES) | inactivation of nNOS relative to 2.0 μM L-NMA (FIG. 2) (nNOS [3]) | selectivity for nNOS (in words) (nNOS [7]) | other results |
| --- | --- | --- | --- | --- | --- | --- | --- | --- | --- |
| 3.9 | 3.9 | – | – | – | – | CC(=N)NCCC[C@H](N)C(=O)O [L-NIO] | – | – | – |
| – | 12 | 4.80 | 0.07 | 3.33 | – | C=CCC(=N)NCCC[C@H](N)C(=O)O [L-VNIO, N^5-(1-imino-3-butenyl)-L-ornithine] | comparable with that seen with 2.0 μM L-NMA | selective inhibitor of nNOS | time until headache pain begins to decrease [4, 12]: ≤ 15 min; time until headache pain is absent [4, 12]: ≤ 45 min; pain relief by the first tablet, following day ([4]; following day, first 500 mg tablet): pain is not fully alleviated by the first tablet; time until headache pain is absent after the second tablet ([4]; following day, second 500 mg tablet 60 minutes after first): ≤ 30 min; stroke volume compared to group receiving no treatment [5]: significant reduction in stroke volume; inhibition of iNOS (in words) (iNOS [6]; conclusion from Table I): poor inhibitor of eNOS and INOS; Ki (iNOS [6]; read-out: iNOS Ki, mouse iNOS, 25° C., pH 7.4, initial rate conditions, duplicates agreed within ±5%): 60 µM; inhibition of nNOS (in words) (nNOS [7]; conclusion from Table I): potent inhibitor of nNOS; Ki (nNOS [7]; read-out: nNOS Ki, rat nNOS, 25° C., pH 7.4, initial rate conditions, duplicates agreed within ±5%): 0.1 µM; inhibition of eNOS (in words) (eNOS [8]; conclusion from Table I): poor inhibitor of eNOS; inactivation of iNOS (FIG. 3) (iNOS [9]): does not inactivate iNOS; inactivation of eNOS (FIG. 3) (eNOS [10]; 10 μM L-VNIO): relatively weak inactivator of eNOS; rate of inactivation of eNOS compared with nNOS (FIG. 3) (eNOS [10]; 20-fold higher concentration of L-VNIO: 10 μM eNOS vs 0.5 μM nNOS): does not match that seen with nNOS; inactivation of nNOS relative to 10 μM L-NIO (FIG. 2) (nNOS [3]; 0.5 μM L-VNIO vs 10 μM L-NIO): greater than that seen with 10 μM L-NIO; inactivation of nNOS (FIG. 3) (nNOS [3]; 0.5 μM L-VNIO): strong inactivator of nNOS; inactivation of nNOS (FIG. 1) (nNOS [3]; L-VNIO 0.1-0.8 μM, D-VNIO 100 μM): caused a first-order inactivation of nNOS |
| 9.5 | 10 | – | – | – | much weaker inactivator of nNOS | CCC(=N)NCCC[C@H](N)C(=O)O [methyl-L-NIO] | – | – | – |
